“And” between values parts separate entries of the source, which are not always exact repeats. Identical values can stand only once. ± gives the expanded uncertainty stated by the source.
Details: Crystal, Calculated from knudsen effusion weight loss

O=c1cc[nH]c(=S)[nH]1 [2-thiouracil]
Details | vapor or sublimation pressure
421.15 K | 0.0001325 ± 1.4e-05 kPa and 0.000123 ± 1.3e-05 kPa and 0.0001236 ± 1.3e-05 kPa
423.21 K | 0.0001553 ± 1.7e-05 kPa and 0.0001548 ± 1.6e-05 kPa and 0.0001474 ± 1.6e-05 kPa
425.22 K | 0.0001891 ± 2e-05 kPa and 0.000178 ± 1.9e-05 kPa and 0.0001835 ± 1.9e-05 kPa
427.15 K | 0.0002128 ± 2.3e-05 kPa and 0.0002092 ± 2.2e-05 kPa and 0.0002223 ± 2.4e-05 kPa
429.2 K | 0.0002611 ± 2.8e-05 kPa and 0.0002488 ± 2.6e-05 kPa and 0.0002569 ± 2.7e-05 kPa
431.23 K | 0.0003061 ± 3.2e-05 kPa and 0.0002978 ± 3.2e-05 kPa and 0.0003042 ± 3.2e-05 kPa
433.16 K | 0.0003652 ± 3.9e-05 kPa and 0.0003584 ± 3.8e-05 kPa and 0.0003803 ± 4e-05 kPa
435.2 K | 0.0004422 ± 4.7e-05 kPa and 0.0004176 ± 4.4e-05 kPa and 0.0004406 ± 4.7e-05 kPa
437.24 K | 0.0005206 ± 5.5e-05 kPa and 0.0005016 ± 5.3e-05 kPa and 0.0005328 ± 5.6e-05 kPa
439.16 K | 0.0005912 ± 6.3e-05 kPa and 0.0005684 ± 6e-05 kPa and 0.0006221 ± 6.6e-05 kPa
441.22 K | 0.000693 ± 7.3e-05 kPa and 0.000706 ± 7.5e-05 kPa and 0.0006718 ± 7.1e-05 kPa
443.26 K | 0.000834 ± 8.8e-05 kPa and 0.0008404 ± 8.9e-05 kPa and 0.0008041 ± 8.5e-05 kPa

Cc1cc(=O)[nH]c(=S)[nH]1 [6-methyl-2-thiouracil]
Details | vapor or sublimation pressure
421.16 K | 0.000106 ± 1.1e-05 kPa and 9.78e-05 ± 1e-05 kPa
423.15 K | 0.0001239 ± 1.3e-05 kPa and 0.0001238 ± 1.3e-05 kPa and 0.0001199 ± 1.3e-05 kPa
425.17 K | 0.000145 ± 1.5e-05 kPa and 0.000136 ± 1.4e-05 kPa and 0.0001411 ± 1.5e-05 kPa
427.16 K | 0.0001623 ± 1.7e-05 kPa and 0.0001711 ± 1.8e-05 kPa and 0.0001818 ± 1.9e-05 kPa
429.17 K | 0.0002135 ± 2.3e-05 kPa and 0.0002 ± 2.1e-05 kPa and 0.0002154 ± 2.3e-05 kPa
431.16 K | 0.0002301 ± 2.7e-05 kPa and 0.0002471 ± 2.6e-05 kPa
431.19 K | 0.0002525 ± 2.7e-05 kPa and 0.0002434 ± 2.6e-05 kPa and 0.0002473 ± 2.6e-05 kPa
433.2 K | 0.0002894 ± 3.1e-05 kPa and 0.0002713 ± 2.9e-05 kPa and 0.0002913 ± 3.1e-05 kPa
435.22 K | 0.0003418 ± 3.6e-05 kPa and 0.0003333 ± 3.5e-05 kPa and 0.0003423 ± 3.6e-05 kPa
437.17 K | 0.0004046 ± 4.3e-05 kPa [middle of 5 runs]
439.2 K | 0.0005278 ± 5.6e-05 kPa and 0.0004968 ± 5.3e-05 kPa and 0.0004799 ± 5.1e-05 kPa
439.22 K | 0.0004689 ± 5e-05 kPa and 0.000478 ± 5.1e-05 kPa and 0.0004523 ± 4.8e-05 kPa
441.23 K | 0.0005644 ± 6e-05 kPa [middle of 5 runs]
443.16 K | 0.0006925 ± 7.3e-05 kPa and 0.0006452 ± 6.8e-05 kPa
443.17 K | 0.0006889 ± 7.3e-05 kPa and 0.0006567 ± 7e-05 kPa
445.2 K | 0.0007983 ± 8.5e-05 kPa and 0.0007787 ± 8.3e-05 kPa
445.21 K | 0.000813 ± 8.6e-05 kPa and 0.0008056 ± 8.6e-05 kPa and 0.0007574 ± 8e-05 kPa
447.24 K | 0.0009485 ± 0.0001 kPa [middle of 6 runs]

Cc1c[nH]c(=S)[nH]c1=O [5-methyl-2-thiouracil]
Details | vapor or sublimation pressure
413.15 K | 0.0001771 ± 1.9e-05 kPa and 0.0001698 ± 1.8e-05 kPa
415.25 K | 0.0002113 ± 2.2e-05 kPa and 0.000217 ± 2.3e-05 kPa and 0.0002102 ± 2.2e-05 kPa
417.15 K | 0.0002538 ± 2.7e-05 kPa and 0.0002498 ± 2.7e-05 kPa
417.24 K | 0.0002506 ± 2.7e-05 kPa
419.23 K | 0.0003129 ± 3.3e-05 kPa and 0.0003018 ± 3.2e-05 kPa and 0.0003131 ± 3.3e-05 kPa
421.24 K | 0.0003606 ± 3.8e-05 kPa and 0.0003744 ± 4e-05 kPa
423.16 K | 0.0004363 ± 4.6e-05 kPa and 0.0004213 ± 4.5e-05 kPa and 0.0004419 ± 4.7e-05 kPa
425.2 K | 0.0005302 ± 5.6e-05 kPa and 0.000505 ± 5.4e-05 kPa and 0.0005103 ± 5.4e-05 kPa
427.22 K | 0.0006121 ± 6.5e-05 kPa and 0.000601 ± 6.4e-05 kPa and 0.0006259 ± 6.6e-05 kPa
429.15 K | 0.0007317 ± 7.8e-05 kPa and 0.0007071 ± 7.5e-05 kPa and 0.0007522 ± 8e-05 kPa
431.22 K | 0.0008692 ± 9.2e-05 kPa and 0.0008414 ± 8.9e-05 kPa and 0.000852 ± 9e-05 kPa
433.24 K | 0.001032 ± 0.00013 kPa and 0.001018 ± 0.00012 kPa and 0.001053 ± 0.00013 kPa

From the NIST ThermoML archive (doi:10.1016/j.jct.2012.08.004)
